What was measured:
[1] = Dissociation constant of [3H]DPCPX binding to adenosine A1 receptor (AR) at 200 nM
[2] = Dissociation constant of [3H]DPCPX binding to adenosine A1 receptor (AR) at 100 nM
[3] = Dissociation constant of [3H]DPCPX binding to adenosine A1 receptor (AR) at 0.05 nM
[4] = Dissociation constant of [3H]DPCPX binding to adenosine A1 receptor (AR) at 5 nM
[5] = Dissociation constant of [3H]-DPCPX binding to adenosine A1 receptor (AR) at 0.1 nM
[6] = Dissociation constant of [3H]DPCPX binding to adenosine A1 receptor(AR) at 0.1 nM
[7] = Dissociation constant of [3H]-DPCPX binding to adenosine A1 receptor(AR) at 0.05 nM

Structure (SMILES): CCCn1c(=O)c2[nH]c(C3CCCCC3)nc2n(Cc2ccc(S(=O)(=O)F)cc2)c1=O [4-(8-Cyclohexyl-2,6-dioxo-1-propyl-1,2,6,7-tetrahydro-purin-3-ylmethyl)-benzenesulfonyl fluoride]
- Kd [1]: 0.32 nM

Structure (SMILES): CCCn1c(=O)c2[nH]c(C3CCCCC3)nc2n(CCCc2ccc(S(=O)(=O)F)cc2)c1=O [4-[3-(8-Cyclohexyl-2,6-dioxo-1-propyl-1,2,6,7-tetrahydro-purin-3-yl)-propyl]-benzenesulfonyl fluoride]
- Kd [1]: 0.37 nM

Structure (SMILES): CCCn1c(=O)c2[nH]c(C3CCCCC3)nc2n(CCCNC(=O)c2ccc(S(=O)(=O)F)cc2)c1=O [4-[3-(8-Cyclohexyl-2,6-dioxo-1-propyl-1,2,6,7-tetrahydro-purin-3-yl)-propylcarbamoyl]-benzenesulfonyl fluoride]
- Kd [2]: 0.34 nM
- Kd [3]: 0.28 nM
- Kd [4]: 0.37 nM
- Kd [5]: 0.27 nM

Structure (SMILES): CCCn1c(=O)c2[nH]c(C3CCCC3)nc2n(CCCNC(=O)c2ccc(S(=O)(=O)F)cc2)c1=O [4-[3-(8-Cyclopentyl-2,6-dioxo-1-propyl-1,2,6,7-tetrahydro-purin-3-yl)-propylcarbamoyl]-benzenesulfonyl fluoride]
- Kd [6]: 0.24 nM
- Kd [7]: 0.26 nM

Structure (SMILES): CCCn1c(=O)c2[nH]c(C3CCCCC3)nc2n(CCCCCc2ccc(S(=O)(=O)F)cc2)c1=O [4-[5-(8-Cyclohexyl-2,6-dioxo-1-propyl-1,2,6,7-tetrahydro-purin-3-yl)-pentyl]-benzenesulfonyl fluoride]
- Kd [1]: 0.81 nM

Reference: BindingDB's records for doi:10.1021/jm000181f (Deakin University, 2001)
